From patent publication US9393186B2, “Synthetic peptides useful in the treatment of the skin and use thereof in cosmetic or dermopharmaceutical compositions” (Lipotec, S.A., priority 2006, dated 2016)
Square brackets hold non-standard residues; d marks the D form. Ends that are not written are not given here. Cit = NC(=O)NCCC[C@H](N)C(=O)O; Orn = NCCC[C@H](N)C(=O)O; Nva = CCC[C@H](N)C(=O)O

Tests used:
[1] = system: EFT-200 three-dimensional human skin model; assay: Collagen fibril diameter in EFT-200 three-dimensional human skin model (transmission electron microscopy); type: cell-based; settings: for average of the diameters of the collagen fibrils observed: peptide 0.1 mg/mL in culture medium, changed daily for 14 days, untreated tissue 6.825 nm; for reduction of the diameter of the collagen fibers: peptide 0.1 mg/mL, 14 days, versus untreated tissue
Experimental: Starting from an EFT-200 three-dimensional human skin model (MatTek Corporation), the tissues were treated with H-Lys-Asp-Ile-Cit-NH2 and with H-Lys-Asp-Val-Cit-NH2 at a concentration of 0.1 mg/mL in culture medium. The latter was changed daily for 14 days, adding peptide at the same concentration in each change. On day 14, the tissues were fixed with a solution of 2% paraformaldehyde and 2.5% glutaraldehyde in 0.1M phosphate buffer, pH 7.4, for at least 2 hours at 4° C. The post-fixing was then carried out with 1% osmium tetroxide containing 0.8% potassium ferricyanide for 1 hour at 4° C. The tissues were then dehydrated in alcohols and were slowly included in epoxy resin (Spurr). The samples were cut and oriented correctly in the block, allowing them to polymerize for 48 hours at 60° C.

fibrillogenesis = assay: Regulation of fibrillogenesis by synthetic peptides; settings: peptides complying with the [+,-,0,+] charge pattern; no method given

Substance | average of the diameters of the collagen fibrils observed [1] [nm] | reduction of the diameter of the collagen fibers [1] [%] | effect on fibrillogenesis (fibrillogenesis)
H-KDV[Cit]-NH2 | 5.774 | 15.5 | –
H-KDI[Cit]-NH2 | 5.791 | 15.1 | –
His-Asp-Ile-His (HDIH; printed: His-Asp-Ile-His) [comparison peptide complying with the [+,-,0,+] charge pattern] | – | – | no effect on fibrillogenesis
His-Asp-Ala-Arg (HDAR; printed: His-Asp-Ala-Arg) [comparison peptide complying with the [+,-,0,+] charge pattern] | – | – | no effect on fibrillogenesis
RELH | – | – | capable of regulating fibrillogenesis
[Orn]D[Nva]H | – | – | no effect on fibrillogenesis
